According to PMC7220906, “Target-responsive vasoactive probes for ultrasensitive molecular imaging” (Nature Communications, 2020):
Where two headings read alike, the source gives them in different places. Blank lines part the entries; values can stand above or below the compound they belong to. Residues, ends and D or L forms follow the SMILES beside them. *: point of attachment. Biotin = O=C1N[C@H]2[C@H](CS[C@H]2CCCCC(=O)*)N1; X2 = O=C(CCN1C(=O)CC(*)C1=O)NCCc1ccc(O)c(O)c1; X1 = C[C@@H]1NC(=O)N[C@@H]1CCCCCC(=O)*

Assays:
PACAP receptor PAC1 = molecular target: T1, PACAP receptor PAC1 (Homo sapiens, UniProt P41586); test: PAC1 luminescence (GloSensor cAMP) assay of PACAP derivatives; assay type: cell-based
T1 construct: expressed in transfected cells; host or cells: CHO K1 cells stably transduced by lentivirus with PAC1 and the Glo22F cAMP luciferase
T1 sequence (P41586 21-468): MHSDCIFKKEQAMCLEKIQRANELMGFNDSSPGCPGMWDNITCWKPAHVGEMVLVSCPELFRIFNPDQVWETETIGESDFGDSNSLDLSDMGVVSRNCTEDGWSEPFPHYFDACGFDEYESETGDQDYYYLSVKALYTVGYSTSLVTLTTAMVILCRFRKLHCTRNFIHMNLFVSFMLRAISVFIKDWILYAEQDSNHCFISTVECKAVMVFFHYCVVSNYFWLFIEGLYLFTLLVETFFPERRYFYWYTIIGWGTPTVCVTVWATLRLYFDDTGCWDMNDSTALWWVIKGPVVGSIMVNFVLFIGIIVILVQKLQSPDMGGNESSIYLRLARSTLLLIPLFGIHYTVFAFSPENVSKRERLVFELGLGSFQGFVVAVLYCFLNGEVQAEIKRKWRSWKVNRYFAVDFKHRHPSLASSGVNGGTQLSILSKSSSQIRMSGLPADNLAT
Method: (Promega, Madison, WI). We generated a CHO K1 cell line expressing the required cAMP-dependent luciferase and PAC1 receptor. 24 h before the assay, 2500 cells per well were seeded in 100 µl F10 with 10% FBS in white opaque clear-bottom 96-well plates (Costar, Coppell, TX). […] Luminescence was measured for 30 min using a microtiter plate reader and evaluated after the signal reached a plateau (15 min).
Biotin (BT) and desthiobiotin (dBT) were incorporated as lysine sidechain-derivatized monomers in the synthesis; polyethylene glycol (PEG)-linked BT was incorporated as a BT-functionalized glutamine monomer spaced using a linker of four PEG units. […] Further BT-AVATar activation studies were performed using biotinylated bovine serum albumin (BSA, Sigma-Aldrich) containing 100 nM BT or biotinylated cells containing 150 nM BT (preparation see below) as analytes.
Addition of the maleimido functional group was achieved by reacting DA with N-succinimidyl 3-maleimidopropionate in anhydrous dimethylformamide and further purification using HPLC. The resulting functionalized neurotransmitter, DA-Mal, was further characterized by standard methods (Supplementary Methods and Supplementary Figs. 8 and 9). […] Dopamine sensitivity of the DA-AVATar was examined using freshly prepared DA (Sigma-Aldrich) stocks in PBS pH 7.4.

streptavidin (SA) = tested on: streptavidin (SA); parameters: method as in 2 sources, ref 21 = [21]; PMID 9601024; doi:10.1021/bi9803123; 21. Klumb LA Chu V Stayton PS Energetic roles of hydrogen bonds at the ureido oxygen binding pocket in the streptavidin−biotin complex Biochemistry 1998 37 7657 7663 10.1021/bi9803123 9601024 ||| ref 22 = [22]; PMID 7041971; doi:10.1021/bi00534a024; 22. Hofmann K Titus G Montibeller JA Finn FM Avidin binding of carboxyl-substituted biotin and analogues Biochemistry 1982 21 978 984 10.1021/bi00534a024 7041971; conditions: cited from earlier work
[1] = CHO K1 cells expressing PAC1 and cAMP-dependent luciferase, no streptavidin, mean ± SD of duplicates, read-out: EC50 for PAC1 receptor activation in the absence of SA

SMILES: O=C(O)CCCC[C@@H]1SC[C@@H]2NC(=O)N[C@@H]21 [biotin]
characteristic dissociation time of SA from biotin (streptavidin (SA)): ~ 7 h

SMILES: C[C@@H]1NC(=O)N[C@@H]1CCCCCC(=O)O [desthiobiotin]
affinity for SA relative to biotin (lower) (streptavidin (SA)): 10,000 fold

Next, values leading:

EC50 (PACAP receptor PAC1; [1]): 0.13 ± 0.002 nM
SMILES: CC[C@H](C)[C@H](NC(=O)CNC(=O)[C@H](CC(=O)O)NC(=O)[C@H](CO)NC(=O)[C@@H](N)Cc1c[nH]cn1)C(=O)N[C@@H](Cc1ccccc1)C(=O)N[C@H](C(=O)N[C@@H](CC(=O)O)C(=O)N[C@@H](CO)C(=O)N[C@@H](CCCCNC(=O)CCCCC[C@H]1NC(=O)N[C@H]1C)C(=O)N[C@@H](CO)C(=O)N[C@@H](CCCNC(=N)N)C(=O)N[C@@H](Cc1ccc(O)cc1)C(=O)N[C@@H](CCCNC(=N)N)C(=O)N[C@@H](CCCCN)C(=O)N[C@@H](CCC(N)=O)C(=O)N[C@@H](CCSC)C(=O)N[C@@H](C)C(=O)N[C@H](C(=O)N[C@@H](CCCCNC(=O)CCCCC[C@H]1NC(=O)N[C@H]1C)C(=O)N[C@@H](CCCCN)C(=O)N[C@@H](Cc1ccc(O)cc1)C(=O)N[C@@H](CC(C)C)C(=O)N[C@@H](C)C(=O)N[C@@H](C)C(=O)N[C@H](C(=O)N[C@@H](CC(C)C)C(=O)NCC(=O)N[C@@H](CCCCN)C(=O)N[C@@H](CCCNC(=N)N)C(=O)N[C@@H](Cc1ccc(O)cc1)C(=O)N[C@@H](CCCCNC(=O)CCCCC[C@H]1NC(=O)N[C@H]1C)C(=O)N[C@@H](CCC(N)=O)C(=O)N[C@@H](CCCNC(=N)N)C(=O)N[C@H](C(=O)N[C@@H](CCCCN)C(=O)N[C@@H](CC(N)=O)C(=O)N[C@@H](CCCCN)C(N)=O)C(C)C)C(C)C)C(C)C)[C@@H](C)O [PACAP-10,20,32-dBT] (H-HSDGIFTDSK(X1)SRYRKQMAVK(X1)KYLAAVLGKRYK(X1)QRVKNK-NH2)

EC50 (PACAP receptor PAC1; [1]): 0.061 ± 0.007 nM
SMILES: CC[C@H](C)[C@H](NC(=O)CNC(=O)[C@H](CC(=O)O)NC(=O)[C@H](CO)NC(=O)[C@@H](N)Cc1c[nH]cn1)C(=O)N[C@@H](Cc1ccccc1)C(=O)N[C@H](C(=O)N[C@@H](CC(=O)O)C(=O)N[C@@H](CO)C(=O)N[C@@H](CCCCNC(=O)CCCC[C@@H]1SC[C@@H]2NC(=O)N[C@@H]21)C(=O)N[C@@H](CO)C(=O)N[C@@H](CCCNC(=N)N)C(=O)N[C@@H](Cc1ccc(O)cc1)C(=O)N[C@@H](CCCNC(=N)N)C(=O)N[C@@H](CCCCN)C(=O)N[C@@H](CCC(N)=O)C(=O)N[C@@H](CCSC)C(=O)N[C@@H](C)C(=O)N[C@H](C(=O)N[C@@H](CCCCNC(=O)CCCC[C@@H]1SC[C@@H]2NC(=O)N[C@@H]21)C(=O)N[C@@H](CCCCN)C(=O)N[C@@H](Cc1ccc(O)cc1)C(=O)N[C@@H](CC(C)C)C(=O)N[C@@H](C)C(=O)N[C@@H](C)C(=O)N[C@H](C(=O)N[C@@H](CC(C)C)C(=O)NCC(=O)N[C@@H](CCCCN)C(=O)N[C@@H](CCCNC(=N)N)C(=O)N[C@@H](Cc1ccc(O)cc1)C(=O)N[C@@H](CCCCN)C(=O)N[C@@H](CCC(N)=O)C(=O)N[C@@H](CCCNC(=N)N)C(=O)N[C@H](C(=O)N[C@@H](CCCCN)C(=O)N[C@@H](CC(N)=O)C(=O)N[C@@H](CCCCN)C(N)=O)C(C)C)C(C)C)C(C)C)[C@@H](C)O [PACAP-10,20-BT] (H-HSDGIFTDSK(Biotin)SRYRKQMAVK(Biotin)KYLAAVLGKRYKQRVKNK-NH2)

EC50 (PACAP receptor PAC1; DA conjugate, no IgG, SD of duplicates, read-out: EC50 for PAC1 receptor activation): 2.5 ± 0.6 nM
SMILES: CC[C@H](C)[C@H](NC(=O)CNC(=O)[C@H](CC(=O)O)NC(=O)[C@H](CO)NC(=O)[C@@H](N)Cc1c[nH]cn1)C(=O)N[C@@H](Cc1ccccc1)C(=O)N[C@H](C(=O)N[C@@H](CC(=O)O)C(=O)N[C@@H](CO)C(=O)N[C@@H](CSC1CC(=O)N(CCC(=O)NCCc2ccc(O)c(O)c2)C1=O)C(=O)N[C@@H](CO)C(=O)N[C@@H](CCCNC(=N)N)C(=O)N[C@@H](Cc1ccc(O)cc1)C(=O)N[C@@H](CCCNC(=N)N)C(=O)N[C@@H](CCCCN)C(=O)N[C@@H](CCC(N)=O)C(=O)N[C@@H](CCSC)C(=O)N[C@@H](C)C(=O)N[C@H](C(=O)N[C@@H](CSC1CC(=O)N(CCC(=O)NCCc2ccc(O)c(O)c2)C1=O)C(=O)N[C@@H](CCCCN)C(=O)N[C@@H](Cc1ccc(O)cc1)C(=O)N[C@@H](CC(C)C)C(=O)N[C@@H](C)C(=O)N[C@@H](C)C(=O)N[C@H](C(=O)N[C@@H](CC(C)C)C(=O)NCC(=O)N[C@@H](CCCCN)C(=O)N[C@@H](CCCNC(=N)N)C(=O)N[C@@H](Cc1ccc(O)cc1)C(=O)N[C@@H](CCCCN)C(=O)N[C@@H](CCC(N)=O)C(=O)N[C@@H](CCCNC(=N)N)C(=O)N[C@H](C(=O)N[C@@H](CCCCN)C(=O)N[C@@H](CC(N)=O)C(=O)N[C@@H](CCCCN)C(N)=O)C(C)C)C(C)C)C(C)C)[C@@H](C)O (some centres unmarked) [PACAP-10,20-DA] (H-HSDGIFTDSC(X2)SRYRKQMAVC(X2)KYLAAVLGKRYKQRVKNK-NH2)
